Measurements published in PubChem BioAssay (NCI).
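Cultured in 96-well plates, cells were exposed to test compound for 48 hours across five concentrations. TGI: total growth inhibition.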

Assays:
Assay in all cases: DTP human tumour cell line panel, 48 h
[1] = tested on: 786-0 renal
[2] = tested on: A498 renal
[3] = tested on: A549 NSCLC
[4] = tested on: ACHN renal
[5] = tested on: CAKI-1 renal
[6] = tested on: CCRF-CEM leukemia
[7] = tested on: DLD-1 colon
[8] = tested on: DMS 114 small cell lung
[9] = tested on: DMS 273 small cell lung
[10] = tested on: EKVX NSCLC
[11] = tested on: HCC-2998 colon
[12] = tested on: HCT-116 colon
[13] = tested on: HCT-15 colon
[14] = tested on: HL-60(TB) leukemia
[15] = tested on: HOP-18 NSCLC
[16] = tested on: HOP-62 NSCLC
[17] = tested on: HOP-92 NSCLC
[18] = tested on: HT29 colon
[19] = tested on: IGROV1 ovarian
[20] = tested on: K-562 leukemia
[21] = tested on: KM12 colon
[22] = tested on: KM20L2 colon
[23] = tested on: LOX IMVI melanoma
[24] = tested on: LXFL 529 NSCLC
[25] = tested on: M14 melanoma
[26] = tested on: M19-MEL melanoma
[27] = tested on: MALME-3M melanoma
[28] = tested on: MOLT-4 leukemia
[29] = tested on: NCI-H226 lung
[30] = tested on: NCI-H23 lung
[31] = tested on: NCI-H460 lung
[32] = tested on: NCI-H522 lung
[33] = tested on: OVCAR-4 ovarian
[34] = tested on: OVCAR-5 ovarian
[35] = tested on: OVCAR-8 ovarian
[36] = tested on: RPMI-8226 leukemia
[37] = tested on: RXF 393 renal
[38] = tested on: SF-268 CNS
[39] = tested on: SF-295 CNS
[40] = tested on: SF-539 CNS
[41] = tested on: SK-MEL-2 melanoma
[42] = tested on: SK-MEL-28 melanoma
[43] = tested on: SK-MEL-5 melanoma
[44] = tested on: SK-OV-3 ovarian
[45] = tested on: SN12C renal
[46] = tested on: SNB-19 CNS
[47] = tested on: SNB-75 CNS
[48] = tested on: SNB-78 CNS
[49] = tested on: SR leukemia
[50] = tested on: SW-620 colon
[51] = tested on: TK-10 renal
[52] = tested on: U251 CNS
[53] = tested on: UACC-257 melanoma
[54] = tested on: UACC-62 melanoma
[55] = tested on: UO-31 renal
[56] = tested on: XF 498 CNS
[57] = tested on: COLO 205 colon
[58] = tested on: OVCAR-3 ovarian
[59] = tested on: RXF-631 renal

Measured: TGI

CN(C)C(=S)/N=c1\ss/c(=N\S(=O)(=O)c2ccccc2)n1C
not listed: [57] | [58] | [59]
> 100 µM: all other assays above

Cc1cc(OCC(O)CO)ccc1Cl (configuration not stated)
not listed: [1] | [48] | [56]
> 100 µM: all other assays above

Cc1c(Cl)cccc1NC(=O)C(=O)c1c(O)c2ccc(O)cc2oc1=O
not listed: [36] | [59]
> 100 µM: all other assays above

Cc1nc(-n2nc(-c3ccccc3)cc2-c2ccccc2)sc1C(=O)CC(=O)C(=O)Nc1ccc(O)cc1
not listed: [17] | [26] | [31] | [42] | [43] | [56]
> 100 µM: all other assays above
